Earlier results, collected in patent publication US7989624B2, “Aryl spirolactam CGRP receptor antagonists” (Merck Sharp & Dohme Corp., priority 2004, dated 2011).
Where no end group is shown, it is not given here.

Assays:
rats = details: electrical stimulation of the dura mater, prior administration
rat = details: trigeminal ganglion stimulation
migraine = details: clinical studies, intravenously administered
marmoset = details: electrical stimulation of the trigeminal ganglion

Compound	increase of the diameter of the middle meningeal artery (rats)	increased facial blood flow (rat)	acute treatment for migraine (migraine)	increase in facial blood flow (marmoset)
CGRP(8-37): a fragment of CGRP that lacks seven N-terminal amino acid residues; a peptide CGRP antagonist (VTHRLAGLLSRSGGVVKNNFVPTNVGSKAF; ends and bridges not checked; UniProt P06881 90-119, looked up, fragment)	blocked	inhibited	–	–
NCCCC[C@H](NC(=O)[C@@H](Cc1cc(Br)c(O)c(Br)c1)NC(=O)N1CCC(N2Cc3ccccc3NC2=O)CC1)C(=O)N1CCN(c2ccncc2)CC1 [BIBN4096BS]	–	–	safe and effective	could be blocked
